This passage reports IC50 results from US6362188B1, “Farnesyl protein transferase inhibitors” (Schering Corporation, priority 1998, dated 2002).

Each structure is given as a SMILES string.

The test has as its system Human tumor cells. Nature of the test: Soft Agar Assay (anchorage-independent growth). In kind it is cell-based. The note with it: colony outgrowth in soft agar, stated as a range for the group. Here is the method:
Anchorage-independent growth is a characteristic of tumorigenic cell lines. Human tumor cells can be suspended in growth medium containing 0.3% agarose and an indicated concentration of a farnesyl transferase inhibitor. The solution can be overlayed onto growth medium solidified with 0.6% agarose containing the same concentration of farnesyl transferase inhibitor as the top layer. After the top layer is solidified, plates can be incubated for 10-16 days at 37° C. under 5% CO2 to allow colony outgrowth. After incubation, the colonies can be stained by overlaying the agar with a solution of MTT (3-[4,5-dimethyl-thiazol-2-yl]-2,5-diphenyltetrazolium bromide, Thiazolyl blue) (1 mg/mL in PBS). Colonies can be counted and the IC50's can be determined.
In turn, `Cc1nc(C)n(C[C@H]2CCCN(C(=O)[C@H]3CN([C@H]4c5ccc(Cl)cc5CCc5cc(Br)cnc54)CCN3C(=O)OC3CCCCC3)C2)c1C` [Example 214] registered an IC50 of 0.05 to 30 nM.

Regarding `Cc1cncn1CC1CN(C(=O)C2CN(C3c4ccc(Cl)cc4CCc4cc(Br)cnc43)CCN2C(=O)OC(C)(C)C)CCS1(=O)=O` (centres unmarked) [Example 152], the IC50 was in the range of 0.05 to 30 nM.

Compound `Cc1cn(C[C@@H]2CCCN(C(=O)[C@H]3CN([C@@H]4c5ccccc5CCc5cc(Cl)cnc54)CCN3C(=O)C(C)(C)C)C2)cn1` [Example 303] had an IC50 of 0.05 to 30 nM.

The compound `CC1(Cn2ccnc2)CCCN(C(=O)[C@H]2CN([C@H]3c4ccc(Cl)cc4CCc4cccnc43)CCN2C(=O)OC2CCCCC2)C1` (some centres unmarked) [Example 415] registered an IC50 of 0.05 to 30 nM.

`CC(C)(C)OC(=O)N1CCN(C2c3ccc(Cl)cc3CCc3cc(Br)cnc32)C[C@@H]1C(=O)N1CCC[C@H](Cn2ccnc2)C1` (some centres unmarked) [Example 1] yielded an IC50 of 0.5 to 30 nM.

As for `CC(C)(C)OC(=O)N1CCN(C2c3ccc(Cl)cc3CCc3cc(Br)cnc32)C[C@@H]1C(=O)N1CCCCC1CCn1ccnc1` (stereo partly drawn) [Example 74, 1,1-dimethylethyl-4-(3-bromo-8-chloro-6,11-dihydro-5H-benzo[5,6]cyclohepta[1,2-b]pyridin-11-yl)-2(R)-[[2-[2-(1H-imidazol-1-yl)ethyl]-1-piperidinyl]carbonyl]-1-piperazinecarboxylate], the IC50 is 0.5 to 30 nM.

`Cc1cn(C[C@@H]2CCCN(C(=O)[C@H]3CN([C@@H]4c5ccc(Cl)cc5CCc5cc(Br)cnc54)CCN3C(=O)OC(C)C)C2)cn1` [Example 169] came in with an IC50 of 0.05 to 30 nM.

`Cc1cn(C[C@H]2CCCN(C(=O)[C@H]3CN([C@@H]4c5ccc(Cl)cc5CCc5cc(Br)cnc54)CCN3C(=O)OCC(C)(C)C)C2)cn1` [Example 187] showed an IC50 of 0.05 to 30 nM.

With `Cc1c(CO)ncn1CC1CCCN(C(=O)C2CN(C3c4ccc(Cl)cc4CCc4cc(Br)cnc43)CCN2C(=O)OC(C)(C)C)C1` (centres unmarked) [Example 160], the IC50 fell in the range of 0.05 to 30 nM.

In turn, `Cc1nccn1CC1CCCN(C(=O)C2CN(C3c4ncccc4CCc4cccc(Cl)c43)CCN2C(=O)OC(C)(C)C)C1` (centres unmarked) [Example 395] displayed an IC50 of 0.05 to 30 nM.

Consider `Cc1cn(C[C@H]2CCCN(C(=O)[C@H]3CN([C@H]4c5ccc(Cl)cc5CCc5cc(Br)cnc54)CCN3C(=O)OC(C)C)C2)cn1` [Example 184], for which the 50% inhibitory concentration (IC50) lay within 0.05 to 30 nM.

With `Cc1cn(CC2CCCN(C(=O)C3CN(C4c5ncccc5CCc5cc(Cl)cc(Br)c54)CCN3C(=O)OC(C)(C)C)C2)cn1` (single isomer, unassigned) [Example 407], the IC50 is 0.05 to 30 nM.

`Cc1cn(C[C@@H]2CCCN(C(=O)[C@H]3CN([C@H]4c5ccccc5CCc5cc(Cl)cnc54)CCN3C(=O)NC(C)(C)C)C2)cn1` [Example 302] returned an IC50 of 0.05 to 30 nM.

With `Cc1cn(C[C@@H]2CCCN(C(=O)[C@H]3CN([C@@H]4c5ccc(Cl)cc5CCc5cc(Cl)cnc54)CCN3C(=O)C(C)(C)C)C2)cn1` [Example 239], the IC50 is 0.05 to 30 nM.

For the compound `Cc1cn(C[C@@H]2CCCN(C(=O)[C@H]3CN([C@@H]4c5ccccc5CCc5cc(Cl)cnc54)CCN3C(=O)OCC(C)(C)C)C2)cn1` [Example 297], the IC50 was 0.05 to 30 nM.

On to `Cc1cn(CC2CN(C(=O)C3CN(C4c5ccc(Cl)cc5CCc5cccnc54)CCN3C(=O)OC3CCCCC3)CCS2(=O)=O)cn1` (single isomer, unassigned) [47(L)], for which the concentration for half-maximal inhibition (IC50) was in the range of 0.05 to 30 nM.

Turning to `Cc1cn(C[C@H]2CCCN(C(=O)[C@H]3CN([C@@H]4c5ccc(Cl)cc5CCc5cc(Cl)cnc54)CCN3C(=O)OCC(C)(C)C)C2)cn1` [Example 245], the IC50 lay within 0.05 to 30 nM.

The compound `CC(C)(C)OC(=O)N1CCN(C2c3ccc(Cl)cc3CCc3cc(Br)cnc32)CC1C(=O)N1CCS(=O)(=O)C(Cc2c[nH]cn2)C1` (centres unmarked) [Example 155] displayed an IC50 of 0.05 to 30 nM.

Take `CC(C)(C)OC(=O)N1CCN(C2c3ccc(Cl)cc3CCc3cc(Br)cnc32)CC1C(=O)N1CC[S+]([O-])C(Cn2ccnc2)C1` (centres unmarked) [Example 7]: the IC50 lay within 0.5 to 30 nM.

Turning to `Cc1cn(CC2CCCN(C(=O)C3CN(C4c5ncccc5CCc5cccc(Cl)c54)CCN3C(=O)OC(C)(C)C)C2)cn1` (centres unmarked) [Example 394], the IC50 was 0.05 to 30 nM.

What is called IC50 is the point on the concentration scale where inhibition reaches its midpoint. Read a high IC50 as lower potency.
